Data taken from patent US12049439B2 (OrsoBio, Inc., priority 2018, dated 2024).

These molecules were tested on PC-3 cells (assay: PC-3 Oxygen Rate Consumption (OCR) Assay). Conditions: Homo sapiens, 0.05 h, medium with 2% FBS, OCR at 3-min post-injection normalized to % increase over DMSO-treated cells, concentration for half-maximal OCR increase, read-out: EC50-PC3-OCR-FBS-3min.
Assay type: cell-based
Summary of the method: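 Oxygen consumption read on Seahorse XFe96: three basal measurements, then compound injection and 10 cycles over 30 min. EC50 defined as concentration giving half-maximal OCR rise, using 3-min post-injection values as % above DMSO controls, six replicates per treatment, in PC-3 cells in glucose/pyruvate medium.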

Row | SMILES | EC50 [µM]
1 | CS(=O)(=O)Nc1ccc(C(F)(F)F)cc1C(=O)NC12CC3CC(CC(C#N)(C3)C1)C2 [Example 175, N-((1R,5R)-3-cyanoadamantan-1-yl)-2-(methylsulfonamido)-5-(trifluoromethyl)benzamide] | 5.98
2 | CS(=O)(=O)Nc1cc(Br)ccc1C(=O)NC12CC(C(F)(F)F)(C1)C2 [Example 48, 4-bromo-2-(methylsulfonamido)-N-(3-(trifluoromethyl)bicyclo[1.1.1]pentan-1-yl)benzamide] | 5.81
3 | CC(C)S(=O)(=O)Nc1ccc(C(F)(F)F)cc1C(=O)NC12CC(C1)C2 [Example 71, N-(bicyclo[1.1.1]pentan-1-yl)-2-((1-methylethyl)sulfonamido)-5-(trifluoromethyl)benzamide] | 6.67
4 | N#CC12CC(NC(=O)c3ccc(C(F)(F)F)cc3NS(=O)(=O)c3ccc(OC(F)(F)F)cc3)(C1)C2 [Example 32, N-(3-cyanobicyclo[1.1.1]pentan-1-yl)-2-((4-(trifluoromethoxy)phenyl)sulfonamido)-4-(trifluoromethyl)benzamide] | 1.52
5 | [2H]C([2H])([2H])C(c1ccc(S(=O)(=O)Nc2ccc(S(C)(=O)=O)cc2C(=O)NC23CC(C(F)(F)F)(C2)C3)cc1)(C([2H])([2H])[2H])C([2H])([2H])[2H] [Example 151, 2-((4-(2-(methyl-d3)propan-2-yl-1,1,1,3,3,3-d6)phenyl)sulfonamido)-5-(methylsulfonyl)-N-(3-(trifluoromethyl)bicyclo[1.1.1]pentan-1-yl)benzamide] | 9.39
6 | N#Cc1ccc(C(=O)NC23CC(C(F)(F)F)(C2)C3)c(NS(=O)(=O)N2CCC2)c1 [Example 247, 2-(azetidine-1-sulfonamido)-4-cyano-N-(3-(trifluoromethyl)bicyclo[1.1.1]pentan-1-yl)benzamide] | 4.79
7 | CN(C)S(=O)(=O)Nc1cc(C(F)(F)F)ccc1C(=O)NC12CCC(C#N)(CC1)CC2 [Example 163, N-(4-cyanobicyclo[2.2.2]octan-1-yl)-2-((N,N-dimethylsulfamoyl)amino)-4-(trifluoromethyl)benzamide] | 3.77
8 | N#Cc1ccc(NS(=O)(=O)N2CCC2)c(C(=O)NC23CCC(C#N)(CC2)CC3)c1 [Example 132, 2-(azetidine-1-sulfonamido)-5-cyano-N-(4-cyanobicyclo[2.2.2]octan-1-yl)benzamide] | 50.9
9 | COC12CC(NC(=O)c3cc(C(F)(F)F)ccc3NS(C)(=O)=O)(C1)C2 [Example 170, N-(3-methoxybicyclo[1.1.1]pentan-1-yl)-2-(methylsulfonamido)-5-(trifluoromethyl)benzamide] | 44.8
10 | CS(=O)(=O)c1ccc(S(=O)(=O)Nc2cc(C(F)(F)F)ccc2C(=O)NC23CC(C#N)(C2)C3)cc1 [Example 18, N-(3-cyanobicyclo[1.1.1]pentan-1-yl)-2-((4-(methylsulfonyl)phenyl)sulfonamido)-4-(trifluoromethyl)benzamide] | 114
11 | CS(=O)(=O)Nc1cc(S(F)(F)(F)(F)F)ccc1C(=O)NC12CCC(C#N)(CC1)CC2 [Example 117, N-(4-cyanobicyclo[2.2.2]octan-1-yl)-2-(methylsulfonamido)-4-(pentafluoro-λ^6-sulfanyl)benzamide] | 4.02
12 | CN(C)S(=O)(=O)Nc1ccc(S(F)(F)(F)(F)F)cc1C(=O)NC12CCC(C#N)(CC1)CC2 [Example 205, N-(4-cyanobicyclo[2.2.2]octan-1-yl)-2-((N,N-dimethylsulfamoyl)amino)-5-(pentafluoro-λ^6-sulfanyl)benzamide] | 1.21
13 | CS(=O)(=O)Nc1cc(SC(F)(F)F)ccc1C(=O)NC12CCC(C#N)(CC1)CC2 [Example 202, N-(4-cyanobicyclo[2.2.2]octan-1-yl)-2-(methylsulfonamido)-4-((trifluoromethyl)thio)benzamide] | 9.32
14 | CS(=O)(=O)c1ccc(S(=O)(=O)Nc2cc(C(F)(F)F)ccc2C(=O)NC23CC(F)(C2)C3)cc1 [Example 20, N-(3-fluorobicyclo[1.1.1]pentan-1-yl)-2-((4-(methylsulfonyl)phenyl)sulfonamido)-4-(trifluoromethyl)benzamide] | 14.3
15 | N#CC12CCC(NC(=O)c3cc(F)ccc3NS(=O)(=O)CCC(F)(F)F)(CC1)CC2 [Example 220, N-(4-cyanobicyclo[2.2.2]octan-1-yl)-5-fluoro-2-((3,3,3-trifluoropropyl)sulfonamido)benzamide] | 5.09
16 | O=C(NC12CC(c3ccccc3)(C1)C2)c1ccc(C(F)(F)F)cc1NS(=O)(=O)c1ccc(OC(F)(F)F)cc1 [Example 31, N-(3-phenylbicyclo[1.1.1]pentan-1-yl)-2-((4-(trifluoromethoxy)phenyl)sulfonamido)-4-(trifluoromethyl)benzamide] | 0.595
17 | CC(C)S(=O)(=O)Nc1ccc(C(F)(F)F)cc1C(=O)NC12CCC(C#N)(CC1)CC2 [Example 72, N-(4-cyanobicyclo[2.2.2]octan-1-yl)-2-((1-methylethyl)sulfonamido)-5-(trifluoromethyl)benzamide] | 4.01

Row | SMILES | EC50 [µM]
18 | CS(=O)(=O)Nc1cc(OC(F)(F)F)ccc1C(=O)NC12CCC(C#N)(CC1)CC2 [Example 203, N-(4-cyanobicyclo[2.2.2]octan-1-yl)-2-(methylsulfonamido)-4-(trifluoromethoxy)benzamide] | 23
19 | CC(C)(C)c1ccc(C(=O)NC23CC(c4ccccc4)(C2)C3)c(NS(=O)(=O)c2ccc(S(C)(=O)=O)cc2)c1 [Example 15, 4-(tert-butyl)-2-((4-(methylsulfonyl)phenyl)sulfonamido)-N-(3-phenylbicyclo[1.1.1]pentan-1-yl)benzamide] | 10.9
20 | CP(C)(=O)c1ccc(S(=O)(=O)Nc2cc(C(F)(F)F)ccc2C(=O)NC23CC4CC(CC(C#N)(C4)C2)C3)cc1 [Example 180] | ≥ 200
21 | CS(=O)(=O)Nc1ccc(C(F)(F)F)cc1C(=O)NC12CCC(C#N)(CC1)C2 [Example 173, N-(4-cyanobicyclo[2.2.1]heptan-1-yl)-2-(methylsulfonamido)-5-(trifluoromethyl)benzamide] | 26.4
22 | Cc1ccc(C(=O)NC23CC(C(F)(F)F)(C2)C3)c(NS(=O)(=O)C(C)C)c1 [Example 61, 4-methyl-2-((1-methylethyl)sulfonamido)-N-(3-(trifluoromethyl)bicyclo[1.1.1]pentan-1-yl)benzamide] | ≥ 100
23 | CS(=O)(=O)c1ccc(S(=O)(=O)Nc2cc(C(F)(F)F)ccc2C(=O)NC23CC4CC(CC(C4)C2)C3)cc1 [Example 10, N-((3s,5s,7s)-adamantan-1-yl)-2-((4-(methylsulfonyl)phenyl)sulfonamido)-4-(trifluoromethyl)benzamide] | 1.22
24 | N#CC12CCC(NC(=O)c3ccc(F)cc3NS(=O)(=O)CCC(F)(F)F)(CC1)C2 [Example 223, N-(4-cyanobicyclo[2.2.1]heptan-1-yl)-4-fluoro-2-((3,3,3-trifluoropropyl)sulfonamido)benzamide] | 4.43
25 | CCS(=O)(=O)c1ccc(S(=O)(=O)Nc2cc(C(F)(F)F)ccc2C(=O)NC23CC(C#N)(C2)C3)cc1 [Example 25, N-(3-cyanobicyclo[1.1.1]pentan-1-yl)-2-((4-(ethylsulfonyl)phenyl)sulfonamido)-4-(trifluoromethyl)benzamide] | ≥ 50
26 | O=C(NC12CCC(C(F)(F)F)(CC1)CC2)c1ccc(F)cc1NS(=O)(=O)N1CCS(=O)(=O)CC1 [Example 231, 2-((1,1-dioxidothiomorpholine)-4-sulfonamido)-4-fluoro-N-(4-(trifluoromethyl)bicyclo[2.2.2]octan-1-yl)benzamide] | 4.69
27 | O=C(NC12CC(C(F)(F)F)(C1)C2)c1ccc(F)cc1NS(=O)(=O)c1ncccn1 [Example 149, 4-fluoro-2-(pyrimidine-2-sulfonamido)-N-(3-(trifluoromethyl)bicyclo[1.1.1]pentan-1-yl)benzamide] | ≥ 20
28 | CCS(=O)(=O)Nc1cc(C(F)(F)F)ccc1C(=O)NC12CC(C(F)(F)F)(C1)C2 [Example 116, 2-(ethylsulfonamido)-4-(trifluoromethyl)-N-(3-(trifluoromethyl)bicyclo[1.1.1]pentan-1-yl)benzamide] | 1.58
29 | CC(C)(C)S(=O)(=O)c1ccc(S(=O)(=O)Nc2cc(F)ccc2C(=O)NC23CC(C#N)(C2)C3)cc1 [Example 153, 2-((4-(tert-butylsulfonyl)phenyl)sulfonamido)-N-(3-cyanobicyclo[1.1.1]pentan-1-yl)-4-fluorobenzamide] | 10.7
30 | CC(C)(C)S(=O)(=O)Nc1cc(C(F)(F)F)ccc1C(=O)NC12CCC(C#N)(CC1)CC2 [Example 114, N-(4-cyanobicyclo[2.2.2]octan-1-yl)-2-((1,1-dimethylethyl)sulfonamido)-4-(trifluoromethyl)benzamide] | 3.48
31 | CS(=O)(=O)Nc1ccc(C(F)(F)F)cc1C(=O)NC12CCC(C#N)(CC1)CC2 [Example 105, N-(4-cyanobicyclo[2.2.2]octan-1-yl)-2-(methylsulfonamido)-5-(trifluoromethyl)benzamide] | 22.9
32 | CN(C)S(=O)(=O)Nc1ccc(C(F)(F)F)cc1C(=O)NC12CC(C#N)(C1)C2 [Example 244, N-(3-cyanobicyclo[1.1.1]pentan-1-yl)-2-((N,N-dimethylsulfamoyl)amino)-5-(trifluoromethyl)benzamide] | 7.65
33 | CS(=O)(=O)c1ccc(S(=O)(=O)Nc2cc(C(F)(F)F)ccc2C(=O)NC23CCC(CC2)C3)cc1 [Example 45, N-(bicyclo[2.2.1]heptan-1-yl)-2-((4-(methylsulfonyl)phenyl)sulfonamido)-4-(trifluoromethyl)benzamide] | 5.45

Same assay, conditions: medium with 2% FBS, OCR at 3-min post-injection normalized to % increase over DMSO-treated cells, concentration for half-maximal OCR increase, read-out: EC50-PC3-OCR-FBS-3min

Row | SMILES | EC50 [µM]
34 | N#CC1(S(=O)(=O)Nc2ccc(C(F)(F)F)cc2C(=O)NC23CC(C(F)(F)F)(C2)C3)CC1 [Example 108, 2-((1-cyanocyclopropane)-1-sulfonamido)-5-(trifluoromethyl)-N-(3-(trifluoromethyl)bicyclo[1.1.1]pentan-1-yl)benzamide] | 8.44
